The results in this text go back to patent publication US9227971B2, “Pyrazolo[1,5-a]pyrimidine compounds as mTOR inhibitors” (Merck Sharp & Dohme Corp., priority 2010, dated 2016).

pIC50: −log10 of the molar value. Where two headings read alike, the source gives them in different places.

In assay [1] the test system is phosphorylated AKT Ser473 (pAKT S473), mTORC2 activity, PC3 cells. Briefly: mTOR target engagement assay, immunofluorescent cell-based, pAKT S473 readout (mTORC2 activity). Conditions: Homo sapiens. In a few lines:
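After blocking, cells were stained overnight at 4 °C with anti-pAKT S473 antibody, then a fluorescent secondary; inhibition was read as reduced fluorescence intensity.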

The test system of assay [2] is phosphorylated 4E-BP1 Thr37/46 (p4E-BP1 Thr37/46), mTORC1 activity, PC3 cells. Briefly: mTOR target engagement assay, immunofluorescent cell-based, p4E-BP1 Thr37/46 readout (mTORC1 activity). Conditions: Homo sapiens, read-out: p4E-BP1 Thr37/46 IC50. The gist of the method:
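Seed PC3 cells overnight; treat with compound dilutions for ninety minutes at 37° C; fix with glyoxal and block; stain with anti-p4E-BP1 Thr37/46 overnight at 4° C, then fluorescent secondary; read fluorescence and fit IC50 against DMSO-only controls.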

The mark [3] stands for this setting: PC-3, PC3 cells, compound treatment ninety minutes at 37° C.

As for `[2H]C([2H])([2H])Oc1ccc(-c2ccc(-c3ccn4c(N)c(S(C)(=O)=O)c([C@@H]5C[C@H]6CC[C@@H](C5)N6C(=O)c5nnc[nH]5)nc34)cn2)cc1` [Compound 3.62, ((1R,3s,5S)-3-(7-amino-3-(6-(4-methoxy-(D3)-phenyl)pyridin-3-yl)-6-(methylsulfonyl)pyrazolo[1,5-a]pyrimidin-5-yl)-8-azabicyclo[3.2.1]octan-8-yl)(4H-1,2,4-triazol-3-yl)methanone], the pIC50 in assay [1] (PC-3, Table 3-1, PC3 cells) was 7.00 to 9.00; in assay [2] (PC-3, Table 3-1, PC3 cells), 7.00 to 9.00.
`Cn1ccc(-c2ccc(-c3cnn4c(N)c(C5CC5)c([C@@H]5C[C@H]6CC[C@@H](C5)N6C(=O)c5nnc[nH]5)nc34)cn2)n1` [Compound 4.17, ((1R,3s,5S)-3-(7-amino-6-cyclopropyl-3-(6-(1-methyl-1H-pyrazol-3-yl)pyridin-3-yl)pyrazolo[1,5-a]pyrimidin-5-yl)-8-azabicyclo[3.2.1]octan-8-yl)(4H-1,2,4-triazol-3-yl)methanone]: the pIC50 in assay [1] (setting [3]) and in assay [2] (setting [3]) was 7.00 to 9.00 in each case.
`CS(=O)(=O)c1c([C@@H]2C[C@H]3CC[C@@H](C2)N3C(=O)c2nnc(O)[nH]2)nc2c(-c3ccc(-c4ccccc4)nc3)cnn2c1N` [Compound 3.29, ((1R,3s,5S)-3-(7-amino-6-(methylsulfonyl)-3-(6-phenylpyridin-3-yl)pyrazolo[1,5-a]pyrimidin-5-yl)-8-azabicyclo[3.2.1]octan-8-yl)(5-hydroxy-4H-1,2,4-triazol-3-yl)methanone]: the pIC50 in assay [1] (PC-3, Table 3-1, PC3 cells) was 6.00 to 7.00; in assay [2] (PC-3, Table 3-1, PC3 cells), 6.00 to 7.00.
`Nc1c(C2CC2)c([C@@H]2C[C@H]3CC[C@@H](C2)N3C(=O)c2nnc[nH]2)nc2c(-c3ccc(-c4ncc[nH]4)nc3)cnn12` [Compound 6.2, ((1R,3s,5S)-3-(3-(6-(1H-imidazol-2-yl)pyridin-3-yl)-7-amino-6-cyclopropylpyrazolo [1,5-a]pyrimidin-5-yl)-8-azabicyclo[3.2.1]octan-8-yl)(4H-1,2,4-triazol-3-yl)methanone]: the pIC50 in assay [1] (PC-3, Table 6-1, PC3 cells) was 7.00 to 9.00; in assay [2] (PC-3, Table 6-1, PC3 cells), 7.00 to 9.00.
For the compound `NC(=O)N1[C@@H]2CC[C@H]1C[C@H](c1nc3c(-c4ccc(-c5ncc[nH]5)nc4)cnn3c(N)c1C1CC1)C2` [Compound 6.31, (1R,3s,5S)-3-(3-(6-(1H-imidazol-2-yl)pyridin-3-yl)-7-amino-6-cyclopropylpyrazolo [1,5-a]pyrimidin-5-yl)-8-azabicyclo[3.2.1]octane-8-carboxamide], the pIC50 in assay [1] (PC-3, Table 6-1, PC3 cells) is 7.00 to 9.00; in assay [2] (PC-3, Table 6-1, PC3 cells), 7.00 to 9.00.
For `CS(=O)(=O)c1c([C@H]2CC3CC[C@H](C2)N3C(=O)c2nnc[nH]2)nc2c(-c3cnc4c(c3)CCC4O)cnn2c1N` (stereo partly drawn) [Compound 7.62, ((1R,3s,5S)-3-(7-amino-3-(7-hydroxy-6,7-dihydro-5H-cyclopenta[b]pyridin-3-yl)-6-(methylsulfonyl)pyrazolo [1,5-a]pyrimidin-5-yl)-8-azabicyclo[3.2.1]octan-8-yl)(4H-1,2,4-triazol-3-yl)methanone], the pIC50 in assay [1] (PC-3, PC3 cells) is 5.00 to 6.00; in assay [2] (PC-3, PC3 cells), 5.00 to 6.00.
In the case of `CS(=O)(=O)c1c([C@@H]2C[C@H]3CC[C@@H](C2)N3C(=O)c2nnc[nH]2)nc2c(-c3ccc(C(N)=O)c(F)c3)cnn2c1N` [Compound 3.155, 4-(5-((1R,3s,5S)-8-(4H-1,2,4-triazole-3-carbonyl)-8-azabicyclo[3.2.1]octan-3-yl)-7-amino-6-(methylsulfonyl)pyrazolo[1,5-a]pyrimidin-3-yl)-2-fluorobenzamide], the pIC50 in assay [1] (PC-3, Table 3-1, PC3 cells) was under 5.00; in assay [2] (PC-3, Table 3-1, PC3 cells), 5.00 to 6.00.
Regarding `CS(=O)(=O)c1c([C@@H]2C[C@H]3CC[C@@H](C2)N3C(=O)CO)nc2c(-c3ccc(C4(O)CCCC4)nc3)cnn2c1N` [Compound 7.47, 1-((1R,3s,5S)-3-(7-amino-3-(6-(1-hydroxycyclopentyl)pyridin-3-yl)-6-(methylsulfonyl)pyrazolo [1,5-a]pyrimidin-5-yl)-8-azabicyclo[3.2.1]octan-8-yl)-2-hydroxyethanone], the pIC50 in assay [1] (PC-3, Table 7-8, PC3 cells) is 6.00 to 7.00; in assay [2] (PC-3, Table 7-8, PC3 cells), 6.00 to 7.00.
Consider `CC(=O)c1c([C@@H]2C[C@H]3CC[C@@H](C2)N3C(=O)c2nnc[nH]2)nc2c(-c3ccc(-c4cccc(F)c4F)nc3)cnn2c1N` [Compound 1.1.61, 1-(5-((1R,3s,5S)-8-(4H-1,2,4-triazole-3-carbonyl)-8-azabicyclo[3.2.l]octan-3-yl)-7-amino-3-(6-(2,3-difluorophenyl)pyridin-3-yl)pyrazolo[1,5-a]pyrimidin-6-yl)ethanone], for which the pIC50 in assay [1] (setting [3]) and in assay [2] (setting [3]) was 7.00 to 9.00 each time.
On to `[2H]C([2H])([2H])n1ccc(-c2ccc(-c3cnn4c(N)c(C(C)=O)c([C@@H]5C[C@H]6CC[C@@H](C5)N6C(=O)CO)nc34)cn2)n1` [Compound 1.1.84, 1-((1R,3s,5S)-3-(6-acetyl-7-amino-3-(6-(1-methyl-(D3)-1H-pyrazol-3-yl)pyridin-3-yl)pyrazolo[1,5-a]pyrimidin-5-yl)-8-azabicyclo[3.2.1]octan-8-yl)-2-hydroxyethanone], for which the pIC50 in assay [1] (setting [3]) and in assay [2] (setting [3]) was 7.00 to 9.00 each time.
As for `CC(=O)c1c([C@@H]2C[C@H]3CC[C@@H](C2)N3C(=O)c2nnc[nH]2)nc2c(-c3ccc(-c4ncn(C)n4)nc3)cnn2c1N` [Compound 1.1.88, 1-(5-((1R,3s,5S)-8-(4H-1,2,4-triazole-3-carbonyl)-8-azabicyclo[3.2.1]octan-3-yl)-7-amino-3-(6-(1-methyl-1H-1,2,4-triazol-3-yl)pyridin-3-yl)pyrazolo[1,5-a]pyrimidin-6-yl)ethanone], the pIC50 in assay [1] (setting [3]) and in assay [2] (setting [3]) was 7.00 to 9.00 in each case.
Consider `CC(=O)c1c([C@@H]2C[C@H]3CC[C@@H](C2)N3C(=O)c2nnc[nH]2)nc2c(-c3ccc(-c4ccc(F)cc4)nc3)cnn2c1N` [Compound 1.1.163, 1-(5-((1R,3s,5S)-8-(4H-1,2,4-triazole-3-carbonyl)-8-azabicyclo[3.2.1]octan-3-yl)-7-amino-3-(6-(4-fluorophenyl)pyridin-3-yl)pyrazolo[1,5-a]pyrimidin-6-yl)ethanone], for which the results for the pIC50 in assay [1] (setting [3]) and in assay [2] (setting [3]) were 7.00 to 9.00 and 6.00 to 7.00, respectively.
For `COc1ccc(-c2ccc(-c3cnn4c(N)c(Br)c([C@@H]5C[C@H]6CC[C@@H](C5)N6C(=O)[C@@H](C)O)nc34)cn2)cc1CO` [Compound 2.3, (R)-1-((1R,3S,5S)-3-(7-amino-6-bromo-3-(6-(3-(hydroxymethyl)-4-methoxyphenyl)pyridin-3-yl)pyrazolo[1,5-a]pyrimidin-5-yl)-8-azabicyclo[3.2.1]octan-8-yl)-2-hydroxypropan-1-one], in that order: 7.00 to 9.00 and 7.00 to 9.00.
On to `CS(=O)(=O)c1c([C@@H]2C[C@H]3CC[C@@H](C2)N3C(=O)c2nnc[nH]2)nc2c(-c3cnn(-c4ccccn4)c3)cnn2c1N` [Compound 3.123, ((1R,3s,5S)-3-(7-amino-6-(methylsulfonyl)-3-(1-(pyridin-2-yl)-1H-pyrazol-4-yl)pyrazolo[1,5-a]pyrimidin-5-yl)-8-azabicyclo[3.2.1]octan-8-yl)(4H-1,2,4-triazol-3-yl)methanone], for which the pIC50 in assay [1] (PC-3, Table 3-1, PC3 cells) is 6.00 to 7.00; in assay [2] (PC-3, Table 3-1, PC3 cells) it was 6.00 to 7.00.
`C=C(C)c1c([C@@H]2C[C@H]3CC[C@@H](C2)N3C(=O)CO)nc2c(-c3ccc(-c4ncc[nH]4)nc3)cnn2c1N` [Compound 6.7, 1-((1R,3s,5S)-3-(3-(6-(1H-imidazol-2-yl)pyridin-3-yl)-7-amino-6-(prop-1-en-2-yl)pyrazolo[1,5-a]pyrimidin-5-yl)-8-azabicyclo[3.2.1]octan-8-yl)-2-hydroxyethanone]: the pIC50 in assay [1] (PC-3, Table 6-1, PC3 cells) was 7.00 to 9.00; in assay [2] (PC-3, Table 6-1, PC3 cells) it was 7.00 to 9.00.
